Results: the NIST ThermoML archive (doi:10.1016/j.jct.2016.07.032)

Tests used:
[1] = refractive index (Na D-line) (dimensionless); xn = mol fraction of the nth substance listed; conditions: 101.3 kPa, Liquid, Standard Abbe refractometry
[2] = xn = mol fraction of the nth substance listed; conditions: 101.3 kPa, Liquid; for speed of sound: Frequency=3 MHz, Sing-around technique in a fixed-path interferometer; for mass density: Vibrating tube method

CCOc1ccccc1 [ethoxybenzene] + CN(C)C=O
Conditions	mass density, 298 K [kg/m3]	mass density, 303 K [kg/m3]	mass density, 308 K [kg/m3]	refractive index, 298 K	refractive index, 303 K	refractive index, 308 K	speed of sound, 298 K [m/s]	speed of sound, 303 K [m/s]	speed of sound, 308 K [m/s]
[1], x1 = 0.031	–	–	–	1.431	1.43	1.427	–	–	–
[1], x1 = 0.091	–	–	–	1.437	1.435	1.432	–	–	–
[1], x1 = 0.153	–	–	–	1.442	1.44	1.437	–	–	–
[1], x1 = 0.223	–	–	–	1.448	1.446	1.442	–	–	–
[1], x1 = 0.304	–	–	–	1.455	1.452	1.449	–	–	–
[1], x1 = 0.463	–	–	–	1.468	1.465	1.461	–	–	–
[1], x1 = 0.556	–	–	–	1.475	1.471	1.468	–	–	–
[1], x1 = 0.642	–	–	–	1.481	1.478	1.474	–	–	–
[1], x1 = 0.8	–	–	–	1.493	1.489	1.485	–	–	–
[1], x1 = 1	–	–	–	1.505	1.503	1.499	–	–	–
[2], x1 = 0.031	946	941	936	–	–	–	1452	1432	1415
[2], x1 = 0.091	948	943	939	–	–	–	1443	1424	1406
[2], x1 = 0.153	950	945	941	–	–	–	1435	1415	1398
[2], x1 = 0.223	952	947	943	–	–	–	1427	1407	1389
[2], x1 = 0.304	954	949	945	–	–	–	1418	1398	1380
[2], x1 = 0.463	956	952	948	–	–	–	1403	1383	1365
[2], x1 = 0.556	957	953	949	–	–	–	1396	1376	1357
[2], x1 = 0.642	958	954	949	–	–	–	1390	1370	1350
[2], x1 = 0.8	959	955	950	–	–	–	1379	1360	1340
[2], x1 = 1	960	955	951	–	–	–	1369	1349	1329

CCOc1ccccc1 [ethoxybenzene] + C1CCOC1
Conditions	mass density, 298 K [kg/m3]	mass density, 303 K [kg/m3]	mass density, 308 K [kg/m3]	refractive index, 298 K	refractive index, 303 K	refractive index, 308 K	speed of sound, 298 K [m/s]	speed of sound, 303 K [m/s]	speed of sound, 308 K [m/s]
[1], x1 = 0.031	–	–	–	1.41	1.408	1.405	–	–	–
[1], x1 = 0.072	–	–	–	1.417	1.414	1.412	–	–	–
[1], x1 = 0.117	–	–	–	1.424	1.422	1.419	–	–	–
[1], x1 = 0.197	–	–	–	1.436	1.433	1.43	–	–	–
[1], x1 = 0.246	–	–	–	1.443	1.44	1.437	–	–	–
[1], x1 = 0.326	–	–	–	1.453	1.45	1.447	–	–	–
[1], x1 = 0.492	–	–	–	1.472	1.469	1.466	–	–	–
[1], x1 = 0.695	–	–	–	1.49	1.487	1.483	–	–	–
[1], x1 = 0.899	–	–	–	1.502	1.499	1.494	–	–	–
[1], x1 = 1	–	–	–	1.505	1.503	1.499	–	–	–
[2], x1 = 0.031	886	883	878	–	–	–	1279	1255	1230
[2], x1 = 0.072	892	888	883	–	–	–	1281	1256	1231
[2], x1 = 0.117	897	893	888	–	–	–	1283	1258	1233
[2], x1 = 0.197	905	901	897	–	–	–	1287	1262	1237
[2], x1 = 0.246	910	906	902	–	–	–	1289	1265	1241
[2], x1 = 0.326	918	913	909	–	–	–	1295	1271	1247
[2], x1 = 0.492	931	927	922	–	–	–	1310	1287	1264
[2], x1 = 0.695	944	940	935	–	–	–	1332	1309	1287
[2], x1 = 0.899	955	951	946	–	–	–	1356	1334	1314
[2], x1 = 1	960	955	951	–	–	–	1369	1349	1329

CCOc1ccccc1 [ethoxybenzene] + CN1CCCC1=O
Conditions	mass density, 298 K [kg/m3]	mass density, 303 K [kg/m3]	mass density, 308 K [kg/m3]	refractive index, 298 K	refractive index, 303 K	refractive index, 308 K	speed of sound, 298 K [m/s]	speed of sound, 303 K [m/s]	speed of sound, 308 K [m/s]
[1], x1 = 0.041	–	–	–	1.469	1.468	1.466	–	–	–
[1], x1 = 0.122	–	–	–	1.474	1.472	1.469	–	–	–
[1], x1 = 0.201	–	–	–	1.478	1.475	1.473	–	–	–
[1], x1 = 0.273	–	–	–	1.481	1.479	1.476	–	–	–
[1], x1 = 0.37	–	–	–	1.485	1.483	1.48	–	–	–
[1], x1 = 0.504	–	–	–	1.491	1.488	1.485	–	–	–
[1], x1 = 0.628	–	–	–	1.495	1.492	1.489	–	–	–
[1], x1 = 0.709	–	–	–	1.498	1.495	1.491	–	–	–
[1], x1 = 0.822	–	–	–	1.501	1.498	1.495	–	–	–
[1], x1 = 1	–	–	–	1.505	1.503	1.499	–	–	–
[2], x1 = 0.041	1023	1019	1015	–	–	–	1534	1515	1497
[2], x1 = 0.122	1018	1014	1010	–	–	–	1513	1495	1477
[2], x1 = 0.201	1013	1009	1005	–	–	–	1495	1477	1460
[2], x1 = 0.273	1008	1004	1000	–	–	–	1480	1462	1445
[2], x1 = 0.37	1001	997	993	–	–	–	1460	1443	1427
[2], x1 = 0.504	992	988	983	–	–	–	1437	1420	1403
[2], x1 = 0.628	983	979	975	–	–	–	1418	1400	1383
[2], x1 = 0.709	978	974	969	–	–	–	1406	1388	1370
[2], x1 = 0.822	971	966	962	–	–	–	1391	1372	1354
[2], x1 = 1	960	955	951	–	–	–	1369	1349	1329
